Measurements as given in the kinase profiling compilation of Christmann-Franck et al. (2016).

Experiments:
Assay in all cases: radiometric filter-binding kinase assay, Kinase HotSpot
Settings in all cases: compound 0.5 µM; ATP 10 µM
[1] = biological target: PRKACG (human) (UniProt P22612)
[2] = biological target: CDK2 CCNA2 (human) (UniProt P24941+P20248)
[3] = biological target: STK10 (human) (UniProt O94804)
[4] = biological target: PTK2 (human) (UniProt Q05397)
[5] = biological target: EPHB3 (human) (UniProt P54753)
[6] = biological target: STK38 (human) (UniProt Q15208)
[7] = biological target: PRKCB2 (human) (UniProt P05771)
Sequence of PRKCB2 (human) (P05771 whole entry, looked up): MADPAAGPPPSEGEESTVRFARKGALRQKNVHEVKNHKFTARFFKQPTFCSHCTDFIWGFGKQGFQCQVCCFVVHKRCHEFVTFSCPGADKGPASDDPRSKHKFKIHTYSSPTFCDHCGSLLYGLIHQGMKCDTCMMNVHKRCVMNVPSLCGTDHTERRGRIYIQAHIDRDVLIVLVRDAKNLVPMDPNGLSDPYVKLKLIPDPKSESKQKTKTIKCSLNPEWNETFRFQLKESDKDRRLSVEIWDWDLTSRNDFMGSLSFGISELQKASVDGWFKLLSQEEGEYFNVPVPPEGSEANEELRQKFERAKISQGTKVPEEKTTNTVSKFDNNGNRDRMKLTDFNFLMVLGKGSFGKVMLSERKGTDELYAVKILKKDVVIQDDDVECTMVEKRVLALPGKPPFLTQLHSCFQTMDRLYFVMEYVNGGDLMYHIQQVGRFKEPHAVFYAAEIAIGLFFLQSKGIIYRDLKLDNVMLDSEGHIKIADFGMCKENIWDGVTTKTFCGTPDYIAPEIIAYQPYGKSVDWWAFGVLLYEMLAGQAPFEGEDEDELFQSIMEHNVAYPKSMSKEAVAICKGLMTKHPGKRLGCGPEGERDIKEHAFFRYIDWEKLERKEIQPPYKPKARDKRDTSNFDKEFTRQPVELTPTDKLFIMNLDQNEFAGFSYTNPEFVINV

[8] = biological target: ROCK1 (human) (UniProt Q13464)
[9] = biological target: NTRK1 (human) (UniProt P04629)
[10] = biological target: SRPK3 (human) (UniProt Q9UPE1)
[11] = biological target: MET (human) (UniProt P08581)
[12] = biological target: ROS1 (human) (UniProt P08922)
[13] = biological target: FYN (human) (UniProt P06241)
Sequence of FYN (human) (P06241 whole entry, looked up): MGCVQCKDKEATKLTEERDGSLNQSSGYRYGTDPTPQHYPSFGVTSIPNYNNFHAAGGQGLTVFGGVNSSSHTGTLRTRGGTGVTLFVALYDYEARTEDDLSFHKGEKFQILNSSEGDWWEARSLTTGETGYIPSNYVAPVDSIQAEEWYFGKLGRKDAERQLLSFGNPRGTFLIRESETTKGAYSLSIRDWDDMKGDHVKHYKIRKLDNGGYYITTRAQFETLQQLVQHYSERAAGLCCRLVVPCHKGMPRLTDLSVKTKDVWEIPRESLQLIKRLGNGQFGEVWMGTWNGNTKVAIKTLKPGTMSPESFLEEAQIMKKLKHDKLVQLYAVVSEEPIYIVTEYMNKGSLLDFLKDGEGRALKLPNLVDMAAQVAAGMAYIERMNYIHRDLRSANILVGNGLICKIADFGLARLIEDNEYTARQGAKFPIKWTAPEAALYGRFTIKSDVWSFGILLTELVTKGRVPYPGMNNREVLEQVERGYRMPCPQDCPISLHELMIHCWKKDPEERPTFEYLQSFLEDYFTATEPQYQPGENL

[14] = biological target: NEK2 (human) (UniProt P51955)
[15] = biological target: IGF1R (human) (UniProt P08069)
[16] = biological target: TYRO3 (human) (UniProt Q06418)
[17] = biological target: BRSK2 (human) (UniProt Q8IWQ3)
[18] = biological target: RPS6KA4 KD2 (human) (UniProt O75676)
[19] = biological target: TLK2 (human) (UniProt Q86UE8)
[20] = biological target: CDK2 CCNE1 (human) (UniProt P24941+P24864)
[21] = biological target: RPS6KA2 KD1 KD2 (human) (UniProt Q15349)
Sequence of RPS6KA2 KD1 KD2 (human) (Q15349 whole entry, looked up): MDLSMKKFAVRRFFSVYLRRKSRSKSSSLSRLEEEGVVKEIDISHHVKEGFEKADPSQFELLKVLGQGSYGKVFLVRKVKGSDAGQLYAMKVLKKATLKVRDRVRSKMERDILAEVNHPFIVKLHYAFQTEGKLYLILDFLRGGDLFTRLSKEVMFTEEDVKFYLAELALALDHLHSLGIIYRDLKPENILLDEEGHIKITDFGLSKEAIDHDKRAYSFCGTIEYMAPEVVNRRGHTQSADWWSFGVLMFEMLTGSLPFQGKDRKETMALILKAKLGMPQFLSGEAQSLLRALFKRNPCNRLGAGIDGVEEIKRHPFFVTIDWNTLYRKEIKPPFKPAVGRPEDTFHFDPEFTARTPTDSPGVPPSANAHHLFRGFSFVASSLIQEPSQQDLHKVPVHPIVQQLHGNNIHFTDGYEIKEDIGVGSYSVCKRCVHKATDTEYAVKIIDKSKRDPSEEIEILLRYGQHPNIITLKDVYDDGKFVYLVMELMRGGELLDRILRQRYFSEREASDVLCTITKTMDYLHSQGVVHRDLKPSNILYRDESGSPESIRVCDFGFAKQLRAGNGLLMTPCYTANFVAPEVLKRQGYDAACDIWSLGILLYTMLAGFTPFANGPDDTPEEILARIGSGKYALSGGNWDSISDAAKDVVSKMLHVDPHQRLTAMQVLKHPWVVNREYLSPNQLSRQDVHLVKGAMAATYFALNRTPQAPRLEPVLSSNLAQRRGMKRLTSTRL

[22] = biological target: MAPK9 (human) (UniProt P45984)
[23] = biological target: MAPK13 (human) (UniProt O15264)
[24] = biological target: STK39 (human) (UniProt Q9UEW8)
[25] = biological target: MAPKAPK3 (human) (UniProt Q16644)
[26] = biological target: FES (human) (UniProt P07332)
Sequence of FES (human) (P07332 whole entry, looked up): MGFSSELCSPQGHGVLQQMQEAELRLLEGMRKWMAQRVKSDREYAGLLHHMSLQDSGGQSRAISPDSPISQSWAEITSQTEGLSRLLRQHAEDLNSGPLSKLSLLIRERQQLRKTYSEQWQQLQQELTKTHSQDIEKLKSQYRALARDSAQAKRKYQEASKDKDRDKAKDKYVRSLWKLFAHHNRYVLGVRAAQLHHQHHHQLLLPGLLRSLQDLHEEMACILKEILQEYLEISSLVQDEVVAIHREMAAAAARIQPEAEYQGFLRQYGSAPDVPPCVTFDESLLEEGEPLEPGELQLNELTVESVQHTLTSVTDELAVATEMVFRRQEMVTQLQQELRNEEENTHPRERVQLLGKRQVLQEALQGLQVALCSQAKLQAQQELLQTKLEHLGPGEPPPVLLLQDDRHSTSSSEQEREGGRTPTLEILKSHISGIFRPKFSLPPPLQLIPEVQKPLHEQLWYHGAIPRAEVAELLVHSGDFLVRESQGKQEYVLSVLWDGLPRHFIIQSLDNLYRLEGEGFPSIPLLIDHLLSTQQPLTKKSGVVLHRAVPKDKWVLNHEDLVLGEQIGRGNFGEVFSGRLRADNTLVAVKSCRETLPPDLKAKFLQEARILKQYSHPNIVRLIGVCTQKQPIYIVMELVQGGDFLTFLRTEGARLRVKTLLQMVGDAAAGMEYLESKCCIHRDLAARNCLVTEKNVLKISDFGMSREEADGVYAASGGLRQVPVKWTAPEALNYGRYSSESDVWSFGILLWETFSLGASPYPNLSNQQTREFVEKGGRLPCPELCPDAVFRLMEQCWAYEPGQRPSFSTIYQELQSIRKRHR

[27] = biological target: TSSK1B (human) (UniProt Q9BXA7)
[28] = biological target: BLK (human) (UniProt P51451)
[29] = biological target: MINK1 (human) (UniProt Q8N4C8)
[30] = biological target: CLK1 (human) (UniProt P49759)
[31] = biological target: MAPK10 (human) (UniProt P53779)
[32] = biological target: LRRK2 (human) (UniProt Q5S007)
[33] = biological target: DAPK3 (human) (UniProt O43293)
[34] = biological target: ULK3 (human) (UniProt Q6PHR2)
[35] = biological target: DCLK2 (human) (UniProt Q8N568)
[36] = biological target: CSNK1G2 (human) (UniProt P78368)
[37] = biological target: TTK (human) (UniProt P33981)
[38] = biological target: CAMK2B (human) (UniProt Q13554)
[39] = biological target: AURKA (human) (UniProt O14965)
Sequence of AURKA (human) (O14965 whole entry, looked up): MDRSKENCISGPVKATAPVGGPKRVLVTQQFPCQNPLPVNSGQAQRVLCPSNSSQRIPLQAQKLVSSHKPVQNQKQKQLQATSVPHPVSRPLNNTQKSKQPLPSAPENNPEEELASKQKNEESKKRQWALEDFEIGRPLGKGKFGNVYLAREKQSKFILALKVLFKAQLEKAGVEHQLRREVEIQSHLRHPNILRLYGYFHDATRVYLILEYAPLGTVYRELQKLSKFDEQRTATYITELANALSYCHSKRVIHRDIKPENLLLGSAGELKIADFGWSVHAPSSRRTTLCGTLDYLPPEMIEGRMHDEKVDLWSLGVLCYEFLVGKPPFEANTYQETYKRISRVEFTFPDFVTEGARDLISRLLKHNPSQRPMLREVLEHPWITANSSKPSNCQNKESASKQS

[40] = biological target: TBK1 (human) (UniProt Q9UHD2)
[41] = biological target: RIPK2 (human) (UniProt O43353)
Sequence of RIPK2 (human) (O43353 whole entry, looked up): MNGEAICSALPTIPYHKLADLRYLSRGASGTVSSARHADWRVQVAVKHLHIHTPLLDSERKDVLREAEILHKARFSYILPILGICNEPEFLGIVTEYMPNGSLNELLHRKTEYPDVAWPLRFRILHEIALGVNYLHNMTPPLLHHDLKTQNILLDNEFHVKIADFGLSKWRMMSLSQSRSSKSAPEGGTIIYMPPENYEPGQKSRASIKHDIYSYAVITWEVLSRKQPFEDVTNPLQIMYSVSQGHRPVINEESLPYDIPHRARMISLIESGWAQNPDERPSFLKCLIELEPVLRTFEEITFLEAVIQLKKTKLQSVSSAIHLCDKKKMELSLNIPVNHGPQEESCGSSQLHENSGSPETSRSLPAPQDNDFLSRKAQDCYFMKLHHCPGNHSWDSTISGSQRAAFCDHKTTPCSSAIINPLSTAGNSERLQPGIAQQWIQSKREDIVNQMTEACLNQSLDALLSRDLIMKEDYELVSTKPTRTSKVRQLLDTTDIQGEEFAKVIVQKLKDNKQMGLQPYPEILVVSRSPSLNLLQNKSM

[42] = biological target: ABL1 (human) (UniProt P00519)

Sequence of STK10 (human) (O94804 whole entry, looked up): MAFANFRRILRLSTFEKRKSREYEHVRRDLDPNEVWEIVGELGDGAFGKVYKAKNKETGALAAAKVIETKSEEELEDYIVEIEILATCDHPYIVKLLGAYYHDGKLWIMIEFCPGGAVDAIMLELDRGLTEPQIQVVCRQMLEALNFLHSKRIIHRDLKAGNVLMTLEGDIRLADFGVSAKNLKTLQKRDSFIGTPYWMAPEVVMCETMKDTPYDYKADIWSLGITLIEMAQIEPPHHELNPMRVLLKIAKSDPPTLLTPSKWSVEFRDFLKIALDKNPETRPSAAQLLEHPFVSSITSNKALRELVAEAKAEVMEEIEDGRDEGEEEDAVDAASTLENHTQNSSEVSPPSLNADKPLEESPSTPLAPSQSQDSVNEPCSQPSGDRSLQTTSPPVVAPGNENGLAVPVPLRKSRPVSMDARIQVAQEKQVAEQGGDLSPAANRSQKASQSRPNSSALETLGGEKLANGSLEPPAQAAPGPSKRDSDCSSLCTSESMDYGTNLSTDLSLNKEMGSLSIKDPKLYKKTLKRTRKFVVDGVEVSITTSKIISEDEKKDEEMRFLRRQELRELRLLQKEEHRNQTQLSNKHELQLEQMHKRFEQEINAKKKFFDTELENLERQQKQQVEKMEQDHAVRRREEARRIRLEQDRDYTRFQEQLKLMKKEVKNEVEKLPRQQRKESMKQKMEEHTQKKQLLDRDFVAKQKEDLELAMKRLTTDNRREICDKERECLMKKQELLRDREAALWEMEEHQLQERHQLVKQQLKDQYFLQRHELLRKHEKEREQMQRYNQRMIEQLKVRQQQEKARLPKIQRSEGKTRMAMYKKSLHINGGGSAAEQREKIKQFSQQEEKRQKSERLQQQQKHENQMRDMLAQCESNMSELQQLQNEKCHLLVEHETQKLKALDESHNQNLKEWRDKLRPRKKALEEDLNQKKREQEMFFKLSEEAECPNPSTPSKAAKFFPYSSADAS
Sequence of PRKACG (human) (P22612 whole entry, looked up): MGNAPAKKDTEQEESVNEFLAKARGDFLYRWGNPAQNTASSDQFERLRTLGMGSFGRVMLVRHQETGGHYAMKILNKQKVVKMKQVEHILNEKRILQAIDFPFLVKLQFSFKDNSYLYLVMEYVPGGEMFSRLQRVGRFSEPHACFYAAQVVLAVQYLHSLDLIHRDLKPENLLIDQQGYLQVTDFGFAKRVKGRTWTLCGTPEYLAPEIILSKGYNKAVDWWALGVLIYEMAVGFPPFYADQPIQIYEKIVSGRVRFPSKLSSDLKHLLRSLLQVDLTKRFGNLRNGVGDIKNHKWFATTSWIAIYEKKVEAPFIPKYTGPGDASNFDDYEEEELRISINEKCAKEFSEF

`Nc1ncnc2c1c(-c1ccc(Oc3ccccc3)cc1)cn2C1CCCC1` was tested, and the residual activity [1] was 106%, the residual activity [2] was 104% and the residual activity [3] was 73.1%. For the same compound, the residual activity [4] was 93.9%, the residual activity [5] was 93.4% and the residual activity [6] was 99.3%. It also gave a residual activity [7] of 107%, a residual activity [8] of 106% and a residual activity [9] of 94.3%. The residual activity [10] was 95.7%, the residual activity [11] was 110% and the residual activity [12] was 101%. For the same compound, the residual activity [13] was 3.51%, the residual activity [14] was 88.5% and the residual activity [15] was 104%. It also gave a residual activity [16] of 102%, a residual activity [17] of 98.3% and a residual activity [18] of 105%. The residual activity [19] was 112%, the residual activity [20] was 91.3% and the residual activity [21] was 101%. It also gave a residual activity [22] of 100%, a residual activity [23] of 95.3% and a residual activity [24] of 84.8%. For the same compound, the residual activity [25] was 109%, the residual activity [26] was 94.9% and the residual activity [27] was 114%. The residual activity [28] was 1.52%, the residual activity [29] was 105% and the residual activity [30] was 103%. For the same compound, the residual activity [31] was 87.4%, the residual activity [32] was 86.2% and the residual activity [33] was 114%. It also gave a residual activity [34] of 102%, a residual activity [35] of 99.5% and a residual activity [36] of 93.7%. For the same compound, the residual activity [37] was 104%, the residual activity [38] was 102% and the residual activity [39] was 76.5%. The residual activity [40] was 92.7%, the residual activity [41] was 28.6% and the residual activity [42] was 67.4%.
Work on `Oc1cccc(-c2nc(N3CCOCC3)c3oc4ncccc4c3n2)c1` yielded a residual activity [1] of 101%, a residual activity [2] of 104% and a residual activity [3] of 92.1%. The residual activity [4] was 93.5%, the residual activity [6] was 99% and the residual activity [7] was 102%. It also gave a residual activity [8] of 94.9%, a residual activity [9] of 94.9% and a residual activity [10] of 95%. For the same compound, the residual activity [11] was 97.8%, the residual activity [12] was 93.1% and the residual activity [13] was 91.7%. It also gave a residual activity [14] of 88.6%, a residual activity [15] of 97.1% and a residual activity [16] of 102%. The residual activity [17] was 97.1%, the residual activity [18] was 104% and the residual activity [19] was 102%. For the same compound, the residual activity [20] was 85.5%, the residual activity [21] was 88.1% and the residual activity [22] was 89.4%. The residual activity [23] was 97.4%, the residual activity [24] was 105% and the residual activity [25] was 93.9%. For the same compound, the residual activity [26] was 98.8%, the residual activity [27] was 93.4% and the residual activity [28] was 101%. It also gave a residual activity [29] of 96%, a residual activity [30] of 85.2% and a residual activity [31] of 102%. The residual activity [32] was 101%, the residual activity [33] was 93.1% and the residual activity [34] was 99.7%. It also gave a residual activity [35] of 102%, a residual activity [36] of 88.1% and a residual activity [37] of 93.3%. For the same compound, the residual activity [38] was 98.2%, the residual activity [39] was 91.9% and the residual activity [40] was 93%. The residual activity [41] was 87.4% and the residual activity [42] was 94.4%.
`CO[C@H]1CC2CC[C@@H](C)[C@@](O)(O2)C(=O)C(=O)N2CCCC[C@H]2C(=O)OC([C@H](C)C[C@@H]2CC[C@@H](O)[C@H](OC)C2)CC(=O)[C@H](C)/C=C(\C)[C@@H](O)[C@@H](OC)C(=O)[C@H](C)C[C@H](C)/C=C/C=C/C=C/1C` (stereo partly specified) was tested, and the residual activity [1] was 113%, the residual activity [2] was 101% and the residual activity [3] was 97.7%. For the same compound, the residual activity [4] was 103%, the residual activity [5] was 103% and the residual activity [6] was 92.8%. The residual activity [7] was 89.1%, the residual activity [8] was 103% and the residual activity [9] was 98.4%. For the same compound, the residual activity [10] was 97.2%, the residual activity [11] was 98.1% and the residual activity [12] was 85%. For the same compound, the residual activity [13] was 109%, the residual activity [14] was 107% and the residual activity [15] was 112%. The residual activity [16] was 98.5%, the residual activity [17] was 109% and the residual activity [18] was 91.8%. For the same compound, the residual activity [19] was 94.4%, the residual activity [20] was 91.3% and the residual activity [21] was 89.5%. It also gave a residual activity [22] of 98.4%, a residual activity [23] of 121% and a residual activity [24] of 97.9%. For the same compound, the residual activity [25] was 90.9%, the residual activity [26] was 108% and the residual activity [27] was 103%. It also gave a residual activity [28] of 94.8%, a residual activity [29] of 100% and a residual activity [30] of 107%. The residual activity [31] was 95.9%, the residual activity [32] was 98.7% and the residual activity [33] was 104%. It also gave a residual activity [34] of 85.6%, a residual activity [35] of 99.2% and a residual activity [36] of 94.8%. For the same compound, the residual activity [37] was 117%, the residual activity [38] was 99.2% and the residual activity [39] was 81.5%. It also gave a residual activity [40] of 94.7%, a residual activity [41] of 90.5% and a residual activity [42] of 103%.
`CC(C)N(CCC(=O)c1ccc2ccccc2c1)Cc1ccccc1` showed a residual activity [1] of 107%, a residual activity [2] of 109% and a residual activity [3] of 93.6%. For the same compound, the residual activity [4] was 96.3%, the residual activity [5] was 88.5% and the residual activity [6] was 100%. The residual activity [7] was 101%, the residual activity [8] was 98.6% and the residual activity [9] was 94.8%. It also gave a residual activity [10] of 96.5%, a residual activity [11] of 110% and a residual activity [12] of 113%. The residual activity [13] was 95.3%, the residual activity [14] was 86.9% and the residual activity [15] was 107%. For the same compound, the residual activity [16] was 98.9%, the residual activity [17] was 103% and the residual activity [18] was 109%. It also gave a residual activity [19] of 104%, a residual activity [20] of 89.2% and a residual activity [22] of 100%. For the same compound, the residual activity [23] was 96.2%, the residual activity [24] was 88.3% and the residual activity [25] was 95.7%. For the same compound, the residual activity [26] was 92.7%, the residual activity [27] was 100% and the residual activity [28] was 106%. For the same compound, the residual activity [29] was 101%, the residual activity [30] was 109% and the residual activity [31] was 91.1%. For the same compound, the residual activity [32] was 98.2%, the residual activity [33] was 107% and the residual activity [34] was 95.8%. For the same compound, the residual activity [35] was 98.3%, the residual activity [36] was 104% and the residual activity [37] was 96%. It also gave a residual activity [38] of 96.6%, a residual activity [39] of 104% and a residual activity [40] of 92.4%. For the same compound, the residual activity [41] was 78.3% and the residual activity [42] was 101%.
